Assay results published in patent publication EP0106486A2, “Improvements in or relating to novel octahydrobenz(f)isoquinolines” (ELI LILLY AND COMPANY, priority 1982, dated 1984).
Counter-ions that a name gives are not always drawn. Like-named read-outs stand apart in the source and are kept apart here.

Tested on: Cox standard strain albino male mice
Assay: mouse writhing assay (acetic acid-induced writhing)
Format: in vivo
Details: dose required to inhibit induced writhing by fifty percent, 5 mice per group
Text: The analgesic activity of a number of compounds provided by this invention has been determined in the standard rat-tail jerk assay and the mouse writhing assay. Writhing, characterized by contraction of the abdominal musculature, extension of the hind- legs, and rotation of the trunk, was induced in Cox standard strain albino male mice. The mice, weighing 18-24 grams, were fasted overnight and given the test compound by gavage in an acacia suspension (5%) sixty minutes before writhing was induced by the intraperitoneal administration of acetic acid (0.60 percent). Each treatment group consisted of 5 mice. The total number of writhes for the treatment group was determined during a 10-minute observation starting 5 minutes after acetic acid administration. […] The results in the mouse writhing assay are presented as the effective dose in mg./kg. of the tested compound required to inhibit induced writhing in the test animals by fifty percent (ED50). Results are presented in Column II for both subcutaneous (s.c.) and oral (p.o.) administration of the test compound as compared to the reference compound meperidine.

[1] = 1 h, oral (p.o.) administration, acacia suspension (5%), sixty minutes before i.p. acetic acid (0.60 percent), read-out: Mouse Writhing ED50 p.o.
[2] = sc, subcutaneous (s.c.) administration, writhing induced by i.p. acetic acid (0.60 percent), read-out: Mouse Writhing ED50 s.c.

Compound | ED50 [1] [mg/kg] | ED50 [2] [mg/kg]
CCC[C@]12CCN(CC3CC3)C[C@H]1CCc1ccc(O)cc12 (relative stereo) [Example 13, cis-1,2,3,4,4a,5,6,10b-octahydro-3-cyclopropylmethyl-10b-propylbenz[f]isoquinolin-9-ol] | 73 | 34
C[C@@]12CCNC[C@@H]1CCc1ccc(O)cc12 [Example 7, cis-l,2,3,4,4a,5,6,10b-octahydro-10b-methylbenz[f]isoquinolin-9-ol] | > 80 | 80
CCOC(=O)C1(c2ccccc2)CCN(C)CC1 [Meperidine, reference compound] | 21 | 2.8
COc1ccc2c(c1)[C@]1(C)CCN(C)C[C@@H]1CC2 [Example 1, cis-1,2,3,4,4a,5,6,lOb-octahydro-3,lOb-dimethyl-9-methoxybenz[f]isoquinoline hydrochloride] | 15 | 10
CCC[C@]12CCNC[C@H]1CCc1ccc(O)cc12 (relative stereo) [Example 11, cis-1,2,3,4,4a,5,6,10b-octahydro-10b-propylbenz[f]isoquinolin-9-ol] | > 80 | 62
CN1CC[C@]2(C)c3cc(O)ccc3CC[C@@H]2C1 (relative stereo) [Example 3, cis-1,2,3,4,4a,5,6,10b-octahydro-3,10b-di-methylbenz[f]isoquinolin-9-ol] | 7.2 | 2.3
CCC[C@@]12CCN(C)C[C@@H]1CCc1ccc(O)cc12 [Example 4, cis-1,2,3,4,4a,5,6,1Ob-octahydro-3-methyl-10b-propylbenz[f]isoquinolin-9-ol hydrochloride] | 13 | 4.5
CCC[C@]12CCN(CCc3ccccc3)C[C@H]1CCc1ccc(O)cc12 (relative stereo) [Example 14, cis-1,2,3,4,4a,5,6,10b-octahydro-3-(2-phenylethyl)-10b-propylbenz[f]isoquinolin-9-ol] | > 80 | 78
COc1ccc2c(c1)[C@]1(C)CCNC[C@@H]1CC2 [Example 5, cis-1,2,3,4,4a,5,6,10b-octahydro-9-methoxy-LOb-methylbenz[f]isoquinoline hydrochloride] | 80 | 62
C[C@]12CCN(CC3CC3)C[C@H]1CCc1ccc(O)cc12 (relative stereo) [Example 9, cis-1,2,3,4,4a,5,6,10b-octahydro-3-(cyclopropylmethyl)-10b-methylbenz[f]isoquinolin-9-ol] | > 80 | 32
C=CCN1CC[C@]2(CCC)c3cc(O)ccc3CC[C@@H]2C1 (relative stereo) [Example 12, cis-1,2,3,4,4a,5,6,10b-octahydro-3-(2-propenyl)-10b-propylbenz[f]isoquinolin-9-ol] | 45 | 12
CCC[C@]12CCNC[C@H]1CCc1ccc(OC)cc12.Cl (relative stereo) [Example 6, cis-1,2,3,4,4a,5,6,10b-octahydro-9-methoxy-10b-propylbenz[f]isoquinoline hydrochloride] | > 80 | > 80
CCC[C@]12CCN(C)C[C@H]1CCc1ccc(OC)cc12.Cl (relative stereo) [Example 2, cis-1,2,3,4,4a,5,6,10b-octahydro-3-methyl-9-methoxy-10b-propylbenz[f]isoquinoline hydrochloride] | 11 | 10
C=CCN1CC[C@]2(C)c3cc(O)ccc3CC[C@@H]2C1 (relative stereo) [Example 8, cis-1,2,3,4,4a,5,6,10b-octahydro-3-(2-propenyl)-10b-methylbenz[f]isoquinolin-9-ol] | > 80 | 15
C[C@@]12CCN(CCc3ccccc3)C[C@@H]1CCc1ccc(O)cc12 (relative stereo) [Example 10, cis-1,2,3,4,4a,5,6,10b-octahydro-3-(2-phenylethyl)-10b-methylbenz[f]isoquinolin-9-ol] | 38.2 | 5.2
